# Values of other authors as cited in patent US11642371B2, “Encapsulated antimicrobials and related methods of treatment” (ADVANTAGE SILVER DENTAL ARREST, LLC, priority 2018, dated 2023).
# System: dentinal caries lesions
# Conditions: lesions that had progressed into the dentin
substance,measurement,value
Silver diamine fluoride [SDF],dentinal caries lesions found to be arrested after treatment,two-thirds
